Values of other authors as cited in US20230036624A1, “RETINOL-BASED COMPOSITION” (L'OREAL, priority 2019, published 2023).

System: human epidermal keratinocytes grown in monolayer culture

SMILES: CCCCCCCCCCCCCCCC(=O)OC/C=C(C)/C=C/C=C(C)/C=C/C1=C(C)CCCC1(C)C [retinyl palmitate]
- effectiveness compared with retinol, measured at the transcriptomic level: less effective than retinol
